# Measurements taken from patent US11041000B2, “Peptide inhibitors of interleukin-23 receptor and their use to treat inflammatory diseases” (priority 2019, dated 2021).
# Bridge positions count the residues as written; N and C are the ends. Square brackets hold non-standard residues; d marks the D form. Peptide text beside a SMILES is read from it. Trp(7-Me) = Cc1cccc2c(C[C@H](N)C(=O)O)c[nH]c12; 2Nal = N[C@@H](Cc1ccc2ccccc2c1)C(=O)O; AEF = NCCOc1ccc(C[C@H](N)C(=O)O)cc1; Cit = NC(=O)NCCC[C@H](N)C(=O)O; Pen = CC(C)(S)[C@H](N)C(=O)O; αMeK = C[C@](N)(CCCCN)C(=O)O; Aib = CC(C)(N)C(=O)O; βAla = NCCC(=O)O
# Columns and labels:
# [1] = Stability in human fecal homogenate; assay type: in vitro ADME; conditions: 20% fecal homogenate (supernatant), pH 6.8, 20% human fecal homogenate, anaerobic, 37° C., read-out: t½: Human Feces anaerobic (converted)
# Protocol: (§1) Centrifuged the homogenate at 2800×g for 15 min. The supernatant is taken out and used for incubations. […] The final test compound concentration was 20 μM.
# Stability in rat plasma = assay type: in vitro ADME; conditions: both sexes, SD rat plasma, EDTA, 37° C., read-out: t½: Rat Plasma EDTA (converted)
# [2] = molecular target: IL-23R-expressing DB cells (Homo sapiens, UniProt Q5VWK5); experiment: DB cells IL23R pSTAT3 cell assay (pStat3HTRF); assay type: cell-based; conditions: DB cells stimulated with IL-23 0.5 nM, 30 minutes, phospho-STAT3 in cell lysates; read-out: pStat3 HTRF
# From the text: Human ELISA indicates the IL23-IL23R competitive binding assay described below, Rat ELISA indicates the rat IL-23R competitive binding ELISA assay described below, and pStat3HTRF indicates the DB cells IL-23R pSTAT3 cell assay described below. The peptides depicted in Table E1 are cyclized via a disulfide bridge formed between two Pen residues in these peptides. The peptides depicted in Table E2 are cyclized via a thioether bond between the indicated amino acid residues. Table E2 provides an illustrative structure depicting thioether cyclization, which is indicated in the table by the term “cyclo,” with the cyclic region bracketed immediately following the term “cyclo.” For certain peptides, the residue Abu is present where indicated, whereas in other embodiments, e.g., those related to the non-cyclized form, the Abu may be referred to as a hSer(Cl) or homoSer residue. The petpides depicted in Table E3 are cyclized via a disulfide bridge formed between two Pen residues or a thioether bond between Abu and Cys.
# IL-23 plays a central role in supporting and maintaining Th17 differentiation in vivo. This process is thought to be mediated primarily through the Signal Transducer and Activator of Transcription 3 (STAT3), with phosphorylation of STAT3 (to yield pSTAT3) leading to upregulation of RORC and pro-inflammatory IL-17. This cell assay examines the levels of pSTAT3 in IL-23R-expressing DB cells when stimulated with IL-23 in the presence of test compounds. Serial dilutions of test peptides and IL-23 (Humanzyme #HZ-1261) at a final concentration of 0.5 nM, were added to each well in a 96 well tissue culture plate (Corning #CLS3894). DB cells (ATCC #CRL-2289), cultured in RPMI-1640 medium (Thermo Scientific #11875093) supplemented with 10% FBS, were added at 5×10E5 cells/well and incubated for 30 minutes at 37° C. in a 5% CO2 humidified incubator. Changes in phospho-STAT3 levels in the cell lysates were detected using the Cisbio HTRF pSTAT3 (Tyr705) Cellular Assay Kit (Cisbio #62AT3PEH), according to manufacturer's Two Plate Assay protocol.
# [3] = Stability in simulated intestinal fluid (SIF); assay type: in vitro ADME; conditions: simulated intestinal fluid with pancreatin, pH 6.8, 37° C., matrix is 100 fold dilution of standard SIF concentration; for SIF t½: 20 μM; for half-life at 20 μM: read-out: SIF t½ (converted)
# [4] = Stability in cynomolgus monkey fecal homogenate; assay type: in vitro ADME; conditions: 20% fecal homogenate (supernatant), pH 6.8, 20% cynomolgus monkey fecal homogenate, anaerobic, 37° C., read-out: t½: Monkey Feces anaerobic (converted)
# Protocol: as §1
# [5] = Stability in simulated gastric fluid (SGF); assay type: in vitro ADME; conditions: simulated gastric fluid with porcine pepsin, pH 2, 37° C., 20 μM peptide
# [6] = system: Natural killer (NK) cells; experiment: NK cell based assay (IL-23-induced IFNγ); conditions: primary human NK cells, IL-23 plus IL-18 10 ng/mL, IFNγ in supernatant after 20 to 24 hours
# Protocol: Natural killer (NK) cells, purified from human peripheral blood of healthy donors by negative selection (Miltenyi Biotech, Cat #130-092-657), were cultured in complete media (RPMI 1640 containing 10% FBS, L-glutamine and penicillin-streptomycin) in the presence of IL-2 (RnD, Cat #202-IL-010/CF) at 25 ng/mL. After 7 days, cells were centrifuged, and resuspended in complete media at 1E6 cells/mL. […] After 20 to 24 hours, IFNγ in the supernatant was quantified using Quantikine ELISA (RnD, Cat #DIF50).
# IL-23R-expressing DB cells, sequence (Q5VWK5 24-629 limits assumed): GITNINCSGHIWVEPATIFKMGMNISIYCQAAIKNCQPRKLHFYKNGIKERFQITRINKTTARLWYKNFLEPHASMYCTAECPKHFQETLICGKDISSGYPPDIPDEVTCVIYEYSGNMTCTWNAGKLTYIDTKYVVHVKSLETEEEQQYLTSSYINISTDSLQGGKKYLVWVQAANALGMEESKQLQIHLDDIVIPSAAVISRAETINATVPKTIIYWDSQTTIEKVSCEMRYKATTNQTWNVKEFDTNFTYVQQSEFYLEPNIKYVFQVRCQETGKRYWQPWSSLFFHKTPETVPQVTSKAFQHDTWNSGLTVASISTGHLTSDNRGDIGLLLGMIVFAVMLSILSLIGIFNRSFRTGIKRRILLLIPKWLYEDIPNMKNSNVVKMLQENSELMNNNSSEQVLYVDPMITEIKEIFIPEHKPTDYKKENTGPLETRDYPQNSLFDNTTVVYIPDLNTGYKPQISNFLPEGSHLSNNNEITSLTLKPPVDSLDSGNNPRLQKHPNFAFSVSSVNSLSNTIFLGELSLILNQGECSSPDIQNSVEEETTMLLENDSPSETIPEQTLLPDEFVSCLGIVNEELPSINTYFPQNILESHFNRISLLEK
half-life at 20 μM [4] [h],SGF t½ [5] [h],SMILES,half-life at 20 μM [1] [h],half-life at 20 μM (Stability in rat plasma) [h],IC50 [2] [nM],SIF t½ [3] [h],half-life at 20 μM [3] [h],IC50 [6] [nM],half-life at 20 μM ([4]; cynomolgus monkey) [h]
,24,CC(=O)NCCCC[C@H](NC(=O)[C@](C)(CCCCN)NC(=O)[C@H](Cc1ccc2ccccc2c1)NC(=O)[C@H](Cc1ccc(OCCN)cc1)NC(=O)[C@H]1NC(=O)[C@H](CCCNC(N)=O)NC(=O)[C@H](Cc2c[nH]c3c(C)cccc23)NC(=O)[C@H]([C@@H](C)O)NC(=O)[C@H](CC(N)=O)NC(=O)[C@@H](NC(C)=O)C(C)(C)SSC1(C)C)C(=O)N[C@@H](CC(N)=O)C(=O)NC(C)(C)C(N)=O [compound 264] (Ac-[Pen]NT[Trp(7-Me)][Cit][Pen][AEF][2Nal][αMeK]K(Ac)N[Aib]-NH2; disulfide 1-6),,,,,,,
> 24,,CC(=O)NCCCC[C@@H]1NC(=O)[C@H](Cc2c[nH]c3c(C)cccc23)NC(=O)[C@H]([C@@H](C)O)NC(=O)[C@H](CC(N)=O)NC(=O)[C@@H](NC(C)=O)C(C)(C)SSC(C)(C)[C@@H](C(=O)N[C@@H](Cc2ccc(OCCN)cc2)C(=O)N[C@@H](Cc2ccc3ccccc3c2)C(=O)N[C@@](C)(CCCCN)C(=O)N[C@@H](CCCCNC(=O)C2CCCCC2)C(=O)N[C@@H](CC(N)=O)C(=O)N[C@H](CC(C)C)C(N)=O)NC1=O [compound 357],> 24,> 24,,,14,3.8,
> 24,,CCCCCCCC(=O)NCCCC[C@H](NC(=O)[C@](C)(CCCCN)NC(=O)[C@H](Cc1ccc2ccccc2c1)NC(=O)[C@H](Cc1ccc(OCCN)cc1)NC(=O)[C@H]1NC(=O)[C@H](CCCCNC(C)=O)NC(=O)[C@H](Cc2c[nH]c3c(C)cccc23)NC(=O)[C@H]([C@@H](C)O)NC(=O)[C@H](CC(N)=O)NC(=O)[C@@H](NC(C)=O)C(C)(C)SSC1(C)C)C(=O)N[C@@H](CC(N)=O)C(=O)N[C@H](CC(C)C)C(N)=O [compound 358],> 24,> 24,3.03,24,,,

# The next lines start with the compound.
SMILES,half-life at 20 μM [4] [h],SGF t½ [5] [h],half-life at 20 μM [1] [h],half-life at 20 μM (Stability in rat plasma) [h],IC50 [2] [nM],SIF t½ [3] [h],half-life at 20 μM [3] [h],IC50 [6] [nM],half-life at 20 μM ([4]; cynomolgus monkey) [h]
CC(=O)NCCCC[C@H](NC(=O)[C@](C)(CCCCN)NC(=O)[C@H](Cc1ccc2ccccc2c1)NC(=O)[C@H](Cc1ccc(OCCN)cc1)NC(=O)[C@H]1NC(=O)[C@H](CCCCNC(=O)C2CCCCC2)NC(=O)[C@H](Cc2c[nH]c3c(C)cccc23)NC(=O)[C@H]([C@@H](C)O)NC(=O)[C@H](CC(N)=O)NC(=O)[C@@H](NC(C)=O)C(C)(C)SSC1(C)C)C(=O)N[C@@H](CC(N)=O)C(=O)N[C@H](CC(C)C)C(N)=O [compound 316],> 24,,> 24,> 24,5.6,24,,,
CC(=O)NCCCC[C@H](NC(=O)[C@](C)(CCCCN)NC(=O)[C@H](Cc1ccc2ccccc2c1)NC(=O)[C@H](Cc1ccc(OCCN)cc1)NC(=O)[C@H]1NC(=O)[C@H](CCCNC(N)=O)NC(=O)[C@H](Cc2c[nH]c3c(C)cccc23)NC(=O)[C@H]([C@@H](C)O)NC(=O)[C@H](CC(N)=O)NC(=O)[C@@H](NC(C)=O)C(C)(C)SSC1(C)C)C(=O)N[C@@H](CC(N)=O)C(=O)NC(C)(C)C(=O)N[C@H](CCCNC(=N)N)C(N)=O [compound 345] (Ac-[Pen]NT[Trp(7-Me)][Cit][Pen][AEF][2Nal][αMeK]K(Ac)N[Aib][dR]-NH2; disulfide 1-6),> 24,,> 24,> 24,0.639,,12,,
CC(=O)NCCCC[C@@H]1NC(=O)[C@H](Cc2c[nH]c3c(C)cccc23)NC(=O)[C@H]([C@@H](C)O)NC(=O)[C@H](CC(N)=O)NC(=O)[C@@H](NC(C)=O)C(C)(C)SSC(C)(C)[C@@H](C(=O)N[C@@H](Cc2ccc(OCCN)cc2)C(=O)N[C@@H](Cc2ccc3ccccc3c2)C(=O)N[C@@](C)(CCCCN)C(=O)N[C@@H](CCCCNC(C)=O)C(=O)N[C@@H](CC(N)=O)C(=O)N[C@H](Cc2ccccc2)C(N)=O)NC1=O [compound 258],,,> 24,> 24,0.92,,14,,> 24
CC(=O)N[C@@H]1C(=O)N[C@@H](CC(N)=O)C(=O)N[C@@H]([C@@H](C)O)C(=O)N[C@@H](Cc2c[nH]c3c(C)cccc23)C(=O)N[C@@H](CCCNC(N)=O)C(=O)N[C@H](C(=O)N[C@@H](Cc2ccc(OCCN)cc2)C(=O)N[C@@H](Cc2ccc3ccccc3c2)C(=O)N[C@@](C)(CCCCN)C(=O)N[C@@H](CCCNC(N)=O)C(=O)NCCC(=O)NCCC(N)=O)C(C)(C)SSC1(C)C [compound 281] (Ac-[Pen]NT[Trp(7-Me)][Cit][Pen][AEF][2Nal][αMeK][Cit][βAla][βAla]-NH2; disulfide 1-6),,,> 24,> 24,17.7,,14,,> 24
CC(=O)NCCCC[C@H](NC(=O)[C@](C)(CCCCN)NC(=O)[C@H](Cc1ccc2ccccc2c1)NC(=O)[C@H](Cc1ccc(OCCN)cc1)NC(=O)[C@H]1NC(=O)[C@H](CCC(N)=O)NC(=O)[C@H](Cc2c[nH]c3c(C)cccc23)NC(=O)[C@H]([C@@H](C)O)NC(=O)C(C)(C)NC(=O)[C@@H](NC(C)=O)C(C)(C)SSC1(C)C)C(=O)N[C@@H](CC(N)=O)C(=O)NCCC(N)=O [compound 240] (Ac-[Pen][Aib]T[Trp(7-Me)]Q[Pen][AEF][2Nal][αMeK]K(Ac)N[βAla]-NH2; disulfide 1-6),,,4,8,17.7,,7,,3
